Results as given in patent US6211170A, “Azetidinone derivatives for the treatment of HCMV infections” (Boehringer Ingelheim (Canada) Ltd., priority 1998, dated 2001).
Read-outs that look alike come from different tables or passages of the source.

Experiments:
HCMV NO protease = molecular target: T1, HCMV NO protease (Human cytomegalovirus, UniProt P16753); assay: HCMV NO Protease Assay (fluorogenic substrate cleavage); format: biochemical; settings: HCMV NO protease 100 nM, substrate 5 μM, pH 8, 2.5 h at 30°
T1 construct: HCMV NO protease
T1 sequence (P16753 1-256): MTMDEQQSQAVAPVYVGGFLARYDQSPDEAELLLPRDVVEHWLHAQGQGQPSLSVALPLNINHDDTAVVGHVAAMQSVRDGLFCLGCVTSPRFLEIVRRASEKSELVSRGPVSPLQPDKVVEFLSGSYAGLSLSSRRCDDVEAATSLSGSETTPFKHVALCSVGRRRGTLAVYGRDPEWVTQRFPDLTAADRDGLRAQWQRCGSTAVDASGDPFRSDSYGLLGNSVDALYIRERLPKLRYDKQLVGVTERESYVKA
Procedure: This particular assay determines the ability of a test compound to inhibit the activity (IC50) of HCMV protease. More specifically, in the assay described herein, the inhibitory activity of the test compound is evaluated on the basis of its ability to interfere with the HCMV NO protease cleavage of a fluorogenic peptide substrate which in turn is based on the maturation cleavage site of the enzyme.
1. HCMV NO Protease Assay
Material & Methods: Fluorescence measurements were recorded on a Perkin-Elmer LS-50B spectrofluorimeter equipped with a plate reader accessory. UV measurements were recorded on a Thermomax® microplate reader from Molecular Devices Corporation, Menlo Park, Calif., USA.
HCMV NO protease was assayed with an internally quenched fluorogenic substrate based on the maturation cleavage site (Abz-[…](3-NO2)R--OH, kcat /KM =260 M^-1 s^-1). The fluorescence increase upon cleavage of the Ala-Ser amide bond was monitored using excitation λ=312 nm (slit 2.5 nm) and emission λ=415 nm (slit 5 nm). A protocol adaptable to a 96-well plate format was designed for the determination of IC50 values of inhibitors.
After this period, enzymatic hydrolysis of the fluorogenic substrate in the absence of inhibitor led to about a 30% conversion. Quenching was not required before fluorescence measurement since the total scanning time by the plate reader accessory was brief relative to the duration of the reaction. The aqueous incubation buffer contained 50 mM tris(hydroxymethyl)aminomethane.HCl pH 8, 0.5M Na2 SO4, 50 mM NaCl, 0.1 mM EDTA, 1 mM tris(2-carboxyethyl)phosphine.HCl, 3% v/v DMSO and 0.05% w/v casein. The final concentrations of HCMV NO protease (expressed in terms of total monomer concentration) and substrate were 100 nM and 5 μM respectively. IC50 values were obtained through fitting of the inhibition curve to a competitive inhibition model using SAS NLIN procedure. The mode of inhibition was determined by measurements of the initial rates (in cuvettes) at various substrate concentrations in the buffer as described above. The IC50 values listed in the following tables were obtained according to this assay.

[1] = system: HCMV (strain AD169, ATCC VR-538); assay: Plaque Reduction Assay (PRA) in HCMV-infected Hs-68 cells; format: cell-based, human cytomegalovirus (HCMV)
Procedure: B. Plaque Reduction Assay (PRA):
Hs-68 cells (ATCC # CRL 1635) were seeded in 12-well plates at 83,000 cells/well in 1 mL of DMEM medium (Gibco Canada Inc.) supplemented with 10% fetal bovine serum (FBS, Gibco Canada Inc.). The plates were incubated for 3 days at 37° to allow the cells to reach 80-90% confluency prior to the assay.
The medium was removed from the cells by aspiration. The cells were then infected with approximately 50 PFU of HCMV (strain AD169, ATCC VR-538) in DMEM medium supplemented with 5% inactivated FBS (assay medium). (DMEM medium is commercially available and has been described by R. Dulbecco et al., Virology 1959, 8, 396.) The virus was allowed to adsorb to cells for 2 h at 37°. Following viral adsorption, the medium was removed from the wells by aspiration. The cells were then incubated with or without 1 mL of appropriate concentrations of test reagent in assay medium. Occasionally, test compounds were added 24 h post-infection. After 4 days of incubation at 37°, the medium was exchanged with fresh medium containing test compound and 4 days later the cells were fixed with 1% aqueous formaldehyde and stained with a 2% violet solution in 20% ethanol in water. Microscopic plaques were counted using a stereomicroscope. Drug effects were calculated as a percent reduction in the number of plaques in the presence of each drug concentration compared to the number observed in the absence of drug. Ganciclovir was used as a positive control in all experiments.

[2] = Cytotoxicity, tetrazolium salt (MTT) metabolic assay; format: cell-based; settings: cytotoxic effects, read-out: TC50 (the source's name)
Procedure: Cytotoxic effects noted as TC50 in the following tables were determined according to the tetrazolium salt (MTT) metabolic assay, F. Denizot and F. Lang, J. Immun. Meth., 1986, 89, 271.

[3] = Human betaherpesvirus 5, Hs68, 192 h, plaque reduction, HCMV strain AD169, Hs-68 cells, 8 days, read-out: EC50
[4] = Human betaherpesvirus 5, AD169, Hs68, 192 h

SMILES: CC[C@@H](NC(=O)N1C(=O)C[C@@H]1CSc1ccccc1)c1ccccc1 [Entry 129]
- IC50 (HCMV NO protease): 2.5 µM
- EC50 [1, 3]: > 250 µM
- CC50 [2]: > 250 µM

SMILES: CC[C@@H](NC(=O)N1C(=O)C[C@@H]1COc1ccccc1)c1ccccc1 [Entry 130]
- IC50 (HCMV NO protease): 5.2 µM
- EC50 [1, 3]: 101 µM
- CC50 [2]: > 250 µM

SMILES: CC[C@@H](NC(=O)N1C(=O)C[C@@H]1COC(=O)Nc1ccccc1)c1ccccc1 [Entry 131]
- IC50 (HCMV NO protease): 0.4 µM
- EC50 [1, 4]: 20 µM
- CC50 [2]: > 32 µM

SMILES: CC[C@@H](NC(=O)N1C(=O)C[C@@H]1COC(C)=O)c1ccccc1 [Entry 132]
- IC50 (HCMV NO protease): 3 µM
- EC50 [1, 3]: 210 µM
- CC50 [2]: > 250 µM

SMILES: CC[C@@H](NC(=O)N1C(=O)C[C@@H]1COC(=O)c1ccc2ccccc2c1)c1ccccc1 [Entry 133]
- IC50 (HCMV NO protease): 0.95 µM
- EC50 [1, 4]: 18 µM
- CC50 [2]: > 26 µM

SMILES: CC[C@@H](NC(=O)N1C(=O)C[C@@H]1COC(=O)c1cccc2ccccc12)c1ccccc1 [Entry 134]
- IC50 (HCMV NO protease): 0.46 µM
- EC50 [1, 4]: 9 µM
- CC50 [2]: > 13 µM

SMILES: CC[C@@H](NC(=O)N1C(=O)C[C@@H]1CN(C)Cc1ccccc1)c1ccccc1 [Entry 137]
- IC50 (HCMV NO protease): 9.9 µM
- EC50 [1, 3]: > 147 µM
- CC50 [2]: > 147 µM

SMILES: CC[C@@H](NC(=O)N1C(=O)C[C@@H]1CSc1nc2ncccc2s1)c1ccccc1 [Entry 139]
- IC50 (HCMV NO protease): 0.8 µM
- EC50 [1, 4]: > 53 µM
- CC50 [2]: > 53 µM

SMILES: CC[C@@H](NC(=O)N1C(=O)C[C@@H]1CSc1nccn1C)c1ccccc1 [Entry 140]
- IC50 (HCMV NO protease): 0.7 µM
- EC50 [1, 4]: > 268 µM
- CC50 [2]: > 268 µM

SMILES: CC[C@@H](NC(=O)N1C(=O)C[C@@H]1CSc1nc2ccccc2o1)c1ccccc1 [Entry 141]
- IC50 (HCMV NO protease): 0.8 µM
- EC50 [1, 4]: 22 µM
- CC50 [2]: > 26 µM

SMILES: CC[C@@H](NC(=O)N1C(=O)C[C@@H]1CS(=O)(=O)c1ccccc1)c1ccccc1 [Entry 144]
- IC50 (HCMV NO protease): 1.9 µM
- EC50 [1, 3]: 5 µM
- CC50 [2]: 58 µM

SMILES: CC[C@@H](NC(=O)N1C(=O)C[C@@H]1COC(=O)c1ccccc1)c1ccccc1 [Entry 145]
- IC50 (HCMV NO protease): 0.12 µM
- EC50 [1, 4]: 250 µM
- CC50 [2]: 250 µM

SMILES: O=C1C[C@H](CSc2ccccc2)N1C(=O)NCc1ccncc1 [Entry 201, 2-oxo-4(R)-(phenylsulfanylmethyl) azetidine-1-carboxylic acid (pyridin-4-ylmethyl)amide]
- IC50 (HCMV NO protease): 7.9 µM
- EC50 [1, 3]: 75 µM
- CC50 [2]: > 270 µM

SMILES: O=C(NC[C@H]1CC(=O)N1C(=O)NCc1ccccc1)c1ccccc1 [Entry 204]
- IC50 (HCMV NO protease): 2.6 µM
- EC50 [1, 3]: 120 µM
- CC50 [2]: > 250 µM

SMILES: CC[C@@H](NC(=O)N1C(=O)C[C@@H]1CN1CCCCC1)c1ccccc1 [Entry 206, 2-oxo-4(R)-(piperidin-1-ylmethyl)azetidine-1-carboxylic acid (1(R)-phenylpropyl)amide]
- IC50 (HCMV NO protease): 3.7 µM
- EC50 [1, 3]: > 250 µM
- CC50 [2]: > 250 µM

SMILES: CC[C@@H](NC(=O)N1C(=O)C[C@@H]1[C@H](C)Sc1ncccn1)c1ccccc1 [Entry 208, 2-oxo-4(R)-[1(S)-(pyrimidin-2-ylsulfanyl)ethyl]-azetidine-1-carboxylic acid (1(R)-phenylpropyl)amide]
- IC50 (HCMV NO protease): 4.5 µM
- EC50 [1, 3]: > 250 µM
- CC50 [2]: > 250 µM

SMILES: CC[C@@H](NC(=O)N1C(=O)C[C@@H]1[C@@H](C)Sc1ncccn1)c1ccccc1 [Entry 209, 2-oxo-4(R)-[1(R)-(pyrimidin-2-ylsulfanyl)ethyl]azetidine-1-carboxylic acid (1(R)-phenylpropyl)amide]
- IC50 (HCMV NO protease): 3.4 µM
- EC50 [1, 3]: 80 µM
- CC50 [2]: > 168 µM

SMILES: C[C@@H](NC(=O)N1C(=O)C[C@@H]1CSc1ccccc1)c1ccccc1 [Entry 212]
- IC50 (HCMV NO protease): 4.4 µM
- EC50 [1, 3]: 31 µM
- CC50 [2]: > 52 µM

SMILES: CN(Cc1ccc(C(F)(F)F)cc1)C(=O)N1C(=O)C[C@@H]1CSc1ncccn1 [Entry 301]
- IC50 (HCMV NO protease): 1.7 µM
- EC50 [1, 3]: 95 µM
- CC50 [2]: > 250 µM

SMILES: COC(=O)c1ccc(CN(C)C(=O)N2C(=O)C[C@@H]2CSc2ncccn2)cc1 [Entry 302]
- IC50 (HCMV NO protease): 3.9 µM
- EC50 [1, 3]: 170 µM
- CC50 [2]: > 250 µM

SMILES: CN(Cc1ccc(C(=O)OCc2ccccc2)cc1)C(=O)N1C(=O)C[C@@H]1CSc1ncccn1 [Entry 304]
- IC50 (HCMV NO protease): 2.5 µM
- EC50 [1, 3]: 120 µM
- CC50 [2]: > 250 µM

SMILES: CN(C)C(=O)c1ccc(CN(C)C(=O)N2C(=O)C[C@@H]2CSc2ncccn2)cc1 [Entry 305]
- IC50 (HCMV NO protease): 14 µM
- EC50 [1, 3]: 210 µM
- CC50 [2]: > 250 µM

SMILES: COC(=O)c1ccc(CN(C)C(=O)N2C(=O)C[C@@H]2CSc2nccc(C)n2)cc1 [Entry 307]
- IC50 (HCMV NO protease): 3.5 µM
- EC50 [1, 3]: 105 µM
- CC50 [2]: > 250 µM

SMILES: COC(=O)c1ccc(CN(C)C(=O)N2C(=O)C[C@@H]2CSc2nnnn2C)cc1 [Entry 309]
- IC50 (HCMV NO protease): 1 µM
- EC50 [1, 3]: 130 µM
- CC50 [2]: > 250 µM

SMILES: CN(Cc1ccc(C(F)(F)F)cc1)C(=O)N1C(=O)C[C@@H]1CSc1ccncc1 [Entry 311]
- IC50 (HCMV NO protease): 0.6 µM
- EC50 [1, 3]: 250 µM
- CC50 [2]: > 250 µM

SMILES: CN(Cc1ccc(C#N)cc1)C(=O)N1C(=O)C[C@@H]1CSc1ncccn1 [Entry 312]
- IC50 (HCMV NO protease): 4.7 µM
- EC50 [1, 3]: 100 µM
- CC50 [2]: > 250 µM

SMILES: CN(Cc1ccc(F)cc1)C(=O)N1C(=O)C[C@@H]1CSc1ncccn1 [Entry 313]
- IC50 (HCMV NO protease): 8.3 µM
- EC50 [1, 3]: 110 µM
- CC50 [2]: > 250 µM

SMILES: CN(Cc1ccc(C(F)(F)F)cc1)C(=O)N1C(=O)C[C@@H]1CSc1nccn1C [Entry 314]
- IC50 (HCMV NO protease): 5.5 µM
- EC50 [1, 3]: > 250 µM
- CC50 [2]: > 250 µM

SMILES: CN(Cc1ccc(C(F)(F)F)cc1)C(=O)N1C(=O)C[C@@H]1CSc1nc2ncccc2s1 [Entry 316]
- IC50 (HCMV NO protease): 1.6 µM
- EC50 [1, 3]: 14 µM
- CC50 [2]: > 18 µM

SMILES: CN(Cc1ccc2c(c1)OCO2)C(=O)N1C(=O)C[C@@H]1CSc1ncccn1 [Entry 317]
- IC50 (HCMV NO protease): 9 µM
- EC50 [1, 3]: 140 µM
- CC50 [2]: > 249 µM

SMILES: CN(Cc1ccccc1)C(=O)N1C(=O)C[C@@H]1CSc1ncccn1 [Entry 318]
- IC50 (HCMV NO protease): 10 µM
- EC50 [1, 3]: 150 µM
- CC50 [2]: > 150 µM

SMILES: CN(Cc1ccc(C(F)(F)F)cc1)C(=O)N1C(=O)C[C@@H]1CSc1nc2ccccc2o1 [Entry 319]
- IC50 (HCMV NO protease): 1.7 µM
- EC50 [1, 3]: 160 µM
- CC50 [2]: > 250 µM

SMILES: CN(Cc1ccc(C(F)(F)F)cc1)C(=O)N1C(=O)C[C@@H]1CSc1nnnn1C [Entry 320]
- IC50 (HCMV NO protease): 0.47 µM
- EC50 [1, 3]: 69 µM
- CC50 [2]: > 250 µM

SMILES: O=C1C[C@H](CSc2ncccn2)N1C(=O)N1CCC[C@@H]1c1ccccc1 [Entry 403, 1-(2(R)-phenyl-pyrrolidine-1-carbonyl)-4-(pyrimidin-2-ylsulfanylmethyl)azetidin-2-one]
- IC50 (HCMV NO protease): 14 µM
- EC50 [1, 3]: 95 µM
- CC50 [2]: > 250 µM
